The values that follow come from ChEMBL document CHEMBL1126233, “Derivatives of naphthalimide: new potent conformationally restricted antagonists of 5-HT3 receptors” (Bioorg Med Chem Lett, 1992).

The target of assay [1] is T1, Serotonin 3 (5-HT3) receptor (Rattus norvegicus, UniProt P35563+Q9JJ16).
T1 sequence (P35563 whole entry): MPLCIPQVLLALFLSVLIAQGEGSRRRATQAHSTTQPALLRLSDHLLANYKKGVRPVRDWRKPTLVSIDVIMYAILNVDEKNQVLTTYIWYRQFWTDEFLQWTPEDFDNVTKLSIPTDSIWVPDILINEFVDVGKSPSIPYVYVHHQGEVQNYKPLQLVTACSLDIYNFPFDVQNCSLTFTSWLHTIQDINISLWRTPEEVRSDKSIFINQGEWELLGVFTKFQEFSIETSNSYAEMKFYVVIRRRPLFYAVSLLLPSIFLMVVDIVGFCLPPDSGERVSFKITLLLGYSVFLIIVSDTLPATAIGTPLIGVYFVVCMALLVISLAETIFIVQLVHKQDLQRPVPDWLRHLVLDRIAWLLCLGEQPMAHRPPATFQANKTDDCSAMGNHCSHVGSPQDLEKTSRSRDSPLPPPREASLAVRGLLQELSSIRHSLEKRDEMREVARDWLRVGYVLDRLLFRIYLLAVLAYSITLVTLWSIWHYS
T1 sequence (Q9JJ16 whole entry): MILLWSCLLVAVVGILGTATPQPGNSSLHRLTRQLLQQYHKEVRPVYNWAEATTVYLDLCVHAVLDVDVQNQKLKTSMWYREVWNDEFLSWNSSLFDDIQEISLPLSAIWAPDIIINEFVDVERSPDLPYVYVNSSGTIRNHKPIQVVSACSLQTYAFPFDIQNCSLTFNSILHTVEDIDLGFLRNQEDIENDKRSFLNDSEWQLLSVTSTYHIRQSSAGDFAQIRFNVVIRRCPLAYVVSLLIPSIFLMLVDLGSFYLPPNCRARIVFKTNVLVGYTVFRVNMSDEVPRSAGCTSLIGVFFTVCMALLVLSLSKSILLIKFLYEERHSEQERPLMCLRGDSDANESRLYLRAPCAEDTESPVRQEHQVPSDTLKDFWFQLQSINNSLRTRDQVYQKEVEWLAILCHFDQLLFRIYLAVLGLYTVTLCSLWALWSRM
Kind of assay: Binding affinity at 5-hydroxytryptamine 3 receptor in rat posterior cortex by [3H]-BRL 43694 displacement. Format: tissue-based, Brain.

Assay [2] relates to Rattus norvegicus. Kind of assay: Antagonism of the bradycardia induced by iv injection of 5-HT(10-30 ug/kg) was evaluated by the compound administration in rat; 52-205. Type of assay: functional. The note with it: read-out: ID50 (the source's name).
Assay [3] relates to Rattus norvegicus. Kind of assay: Antagonism of the bradycardia induced by iv injection of 5-HT(10-30 ug/kg) was evaluated by the compound administration in rat; 3.8-8.7. Type of assay: functional. As to conditions: read-out: ID50 (the source's name).
Assay [4] relates to Rattus norvegicus. Put plainly: Antagonism of the bradycardia induced by iv injection of 5-HT(10-30 ug/kg) was evaluated by the compound administration in rat; 8-55. Type of assay: functional. The note with it: read-out: ID50 (the source's name).
Assay [5] deals with Rattus norvegicus. Kind of assay: Antagonism of the bradycardia induced by iv injection of 5-HT(10-30 ug/kg) was evaluated by the compound administration in rat; 2.5-3.9. Type of assay: functional. The note with it: read-out: ID50 (the source's name).
The test system of assay [6] is Rattus norvegicus. Kind of assay: Antagonism of the bradycardia induced by iv injection of 5-HT(10-30 ug/kg) was evaluated by the compound administration in rat; 0.7-3.6. Type of assay: functional. The note with it: read-out: ID50 (the source's name).
In assay [7] the test system is Rattus norvegicus. Kind of assay: Antagonism of the bradycardia induced by iv injection of 5-HT(10-30 ug/kg) was evaluated by the compound administration in rat. Type of assay: functional. As to conditions: read-out: ID50 (the source's name).
Assay [8] deals with Rattus norvegicus. Put plainly: Antagonism of the bradycardia induced by iv injection of 5-HT(10-30 ug/kg) was evaluated by the compound administration in rat; 0.05-0.75. Format: functional. As to conditions: read-out: ID50 (the source's name).
The subject of assay [9] is Rattus norvegicus. Put plainly: Antagonism of the bradycardia induced by iv injection of 5-HT(10-30 ug/kg) was evaluated by the compound administration in rat; 82-190. Format: functional. As to conditions: read-out: ID50 (the source's name).
In assay [10] the test system is Rattus norvegicus. Put plainly: Antagonism of the bradycardia induced by iv injection of 5-HT(10-30 ug/kg) was evaluated by the compound administration in rat; 81-615. Format: functional. As to conditions: read-out: ID50 (the source's name).
Assay [11] concerns Rattus norvegicus. Put plainly: Antagonism of the bradycardia induced by iv injection of 5-HT(10-30 ug/kg) was evaluated by the compound administration in rat; 12-55. Type of assay: functional. The note with it: read-out: ID50 (the source's name).
Assay [12] deals with Rattus norvegicus. Put plainly: Antagonism of the bradycardia induced by iv injection of 5-HT(10-30 ug/kg) was evaluated by the compound administration in rat; 3-8. Format: functional. As to conditions: read-out: ID50 (the source's name).
Assay [13] has as its system Rattus norvegicus. Kind of assay: Antagonism of the bradycardia induced by iv injection of 5-HT(10-30 ug/kg) was evaluated by the compound administration in rat; 0.3-3.4. Format: functional. The note with it: read-out: ID50 (the source's name).
In assay [14] the test system is Rattus norvegicus. Put plainly: Antagonism of the bradycardia induced by iv injection of 5-HT(10-30 ug/kg) was evaluated by the compound administration in rat; 1.7-74. As to conditions: read-out: ID50 (the source's name). Format: functional.

A word on the Ki: it is a measure of affinity in units of concentration, obtained from inhibition or displacement. Read a high Ki as lower affinity.

`O=c1[nH]c2ccccc2c(=O)n1C1CN2CCC1CC2` (centres undefined) yielded a Ki in [1] of 80 nM. The ED50 in the assay on Rattus norvegicus [2] worked out at 0.103 mg/kg.
In the case of `O=C1c2cccc3cccc(c23)C(=O)N1[C@H]1CN2CCC1CC2`, the Ki in assay [1] came out at 0.9 nM. Moreover, in the assay with Rattus norvegicus [3], the ED50 was 0.0057 mg/kg.
As to `Nc1ccc2c3c(cccc13)C(=O)N([C@@H]1CN3CCC1CC3)C2=O`, the affinity in [1], expressed as Ki, was 23.5 nM. In the assay on Rattus norvegicus [4], the ED50 is 0.021 mg/kg.
`Nc1ccc2c3c(cccc13)C(=O)N(C1CN3CCC1CC3)C2=O` (centres undefined) showed a Ki in assay [1] of 0.5 nM. In the assay on Rattus norvegicus [5], the ED50 amounted to 0.003 mg/kg.
With `Nc1ccc2c3c(cccc13)C(=O)N([C@H]1CN3CCC1CC3)C2=O`, the affinity in assay [1], expressed as Ki, was 0.15 nM. The ED50 with Rattus norvegicus [6] turned out to be 0.0016 mg/kg.
`CN1C2CCC1CC(N1C(=O)c3cccc4cccc(c34)C1=O)C2` (centres undefined): in assay [1], the Ki worked out at 374 nM. For the same compound, the ED50 with Rattus norvegicus [7] is more than 0.25 mg/kg.
`COc1cc(N)c(Cl)cc1C(=O)N[C@@H]1CN2CCC1CC2`: the affinity in assay [1] corresponds to a Ki of 0.2 nM. In the assay with Rattus norvegicus [8], the ED50 was determined as 0.0002 mg/kg.
For `O=C1c2cccc3c(Cl)ccc(c23)C(=O)N1C1CN2CCC1CC2` (centres undefined), the Ki in [1] stood at 14 nM. The ED50 with Rattus norvegicus [9] stood at 0.125 mg/kg.
Take `O=C1c2cccc3c(Br)ccc(c23)C(=O)N1C1CN2CCC1CC2` (centres undefined): the Ki in [1] turned out to be 41 nM. For the same compound, the ED50 in the assay with Rattus norvegicus [7] was more than 0.25 mg/kg.
Regarding `O=C1c2cccc3cccc(c23)C(=O)N1[C@@H]1CN2CCC1CC2`, in [1], the Ki worked out at 61 nM. In addition, the ED50 in the assay with Rattus norvegicus [10] was found to be 0.224 mg/kg.
For the compound `COc1ccccc1C(=O)NC1CN2CCC1CC2` (centres undefined), the Ki in [1] amounted to 22 nM. Besides, the ED50 in the assay on Rattus norvegicus [11] came to 0.025 mg/kg.
Compound `O=C1c2cccc3c([N+](=O)[O-])ccc(c23)C(=O)N1C1CN2CCC1CC2` (centres undefined) yielded a Ki in assay [1] of 31 nM. For the same compound, the ED50 with Rattus norvegicus [12] worked out at 0.00525 mg/kg.
In [1], `CN1CCC(N2C(=O)c3cccc4cccc(c34)C2=O)CC1` yielded an inhibitory constant (Ki) of 15 nM. In addition, the ED50 in the assay on Rattus norvegicus [7] is 0.5 mg/kg.
Regarding `O=C1c2cccc3cccc(c23)CN1[C@@H]1CN2CCC1CC2`, the Ki in [1] was determined as 2.2 nM.
In assay [1], `COc1cc(N)c(Cl)cc1C(=O)N[C@H]1CN2CCC1CC2` [(R)ZACOPRIDE] had a Ki of 2.6 nM. Moreover, in the assay with Rattus norvegicus [13], the ED50 was determined as 0.001 mg/kg.
In the case of `O=C1c2cccc3cccc(c23)C(=O)N1C1CN2CCC1CC2` (centres undefined), in assay [1], the affinity corresponds to a Ki of 2.7 nM. The ED50 with Rattus norvegicus [14] came out at 0.011 mg/kg.
The compound `O=C1c2cccc3cccc(c23)CN1[C@H]1CN2CCC1CC2` showed a Ki in assay [1] of 2.3 nM.
`O=c1[nH]c2ccc(Cl)cc2c(=O)n1C1CN2CCC1CC2` (centres undefined) registered a Ki in [1] of 30 nM. Besides, the ED50 in the assay on Rattus norvegicus [7] was 0.08 mg/kg.
